What was measured:
[1] = tested on: annual bluegrass (Poa Annua); test: Seed/biomass effect on annual bluegrass at Day 212; format: in vivo; settings: for Biomass Dry Weight: control (none) 251
Method: (§1) In this evaluation, annual bluegrass (Poa Annua) was grown, and the compounds were applied at various growth stages of the annual bluegrass as depicted in Table Ia using a randomized complete block design of four replications with ten treatments including one untreated control. The compounds were applied using water as the carrier. The results shown in Table Ib depict control of annual bluegrass, which includes browning, necrosis, melt-down and plant death. The results shown in Table Ic depict the amount of seeds on the plants and on the ground for the various treatments.

[2] = tested on: annual bluegrass (Poa Annua); test: Percent control of annual bluegrass (browning, necrosis, melt-down, plant death); format: in vivo
Method: as §1

## CCC(=O)C1=C([O-])CC(C(=O)[O-])CC1=O.[Ca+2] (centres unmarked) [Prohexadione-Calcium, calsium 3,5-dioxo-4-(1-oxopropyl)cyclohexanecarboxylate]
[1]; application time F, prohexadione-calcium treatment, control (none) 30
  Seeds on Ground: 50 g/5 sq ft
[1]; application time F, prohexadione-calcium treatment, control (none) 37
  Seeds on Plant: 34 g/5 sq ft
[1]; application time F, prohexadione-calcium treatment
  Biomass Dry Weight: 188 g/5 sq ft
[1]; application time F, prohexadione-calcium treatment, control (none) 669
  Seeds on Ground: 583 seeds/0.3 g
[1]; application time F, prohexadione-calcium treatment, control (none) 864
  Seeds on Plant: 822 seeds/0.3 g
[2]; 17 DAT, application time A (seedling, day 1), rate 0.125 lb/A (140)
  % Control at Days After First Treatment (DAT): 0%
[2]; 17 DAT, application times A + B (seedling, days 1 and 15), rate A = 0.125 (140) + B = 0.125 (140) lb/A
  % Control at Days After First Treatment (DAT): 0%
[2]; 43 DAT, application time A (seedling, day 1), rate 0.125 lb/A (140)
  % Control at Days After First Treatment (DAT): 0%
[2]; 43 DAT, application time C (tillering, day 35), rate 0.125 lb/A (140)
  % Control at Days After First Treatment (DAT): 0%
[2]; 43 DAT, application times A + B (seedling, days 1 and 15), rate A = 0.125 (140) + B = 0.125 (140) lb/A
  % Control at Days After First Treatment (DAT): 0%
[2]; 77 DAT, application time A (seedling, day 1), rate 0.125 lb/A (140)
  % Control at Days After First Treatment (DAT): 0%
[2]; 77 DAT, application time C (tillering, day 35), rate 0.125 lb/A (140)
  % Control at Days After First Treatment (DAT): 0%
[2]; 77 DAT, application times A + B (seedling, days 1 and 15), rate A = 0.125 (140) + B = 0.125 (140) lb/A
  % Control at Days After First Treatment (DAT): 0%
[2]; 77 DAT, application times C + D (tillering, days 35 and 51), rate C = 0.125 (140) + D = 0.125 (140) lb/A
  % Control at Days After First Treatment (DAT): 0%
[2]; 151 DAT, application time A (seedling, day 1), rate 0.125 lb/A (140)
  % Control at Days After First Treatment (DAT): 0%
[2]; 151 DAT, application time C (tillering, day 35), rate 0.125 lb/A (140)
  % Control at Days After First Treatment (DAT): 0%
[2]; 151 DAT, application times A + B (seedling, days 1 and 15), rate A = 0.125 (140) + B = 0.125 (140) lb/A
  % Control at Days After First Treatment (DAT): 0%
[2]; 151 DAT, application times C + D (tillering, days 35 and 51), rate C = 0.125 (140) + D = 0.125 (140) lb/A
  % Control at Days After First Treatment (DAT): 0%
[2]; 172 DAT, application time A (seedling, day 1), rate 0.125 lb/A (140)
  % Control at Days After First Treatment (DAT): 0%
[2]; 172 DAT, application time C (tillering, day 35), rate 0.125 lb/A (140)
  % Control at Days After First Treatment (DAT): 0%
[2]; 172 DAT, application time F (flowering to soft dough, day 155), rate 0.250 lb/A (280)
  % Control at Days After First Treatment (DAT): 60%
[2]; 172 DAT, application times A + B (seedling, days 1 and 15), rate A = 0.125 (140) + B = 0.125 (140) lb/A
  % Control at Days After First Treatment (DAT): 0%
[2]; 172 DAT, application times C + D (tillering, days 35 and 51), rate C = 0.125 (140) + D = 0.125 (140) lb/A
  % Control at Days After First Treatment (DAT): 0%
[2]; 204 DAT, application time A (seedling, day 1), rate 0.125 lb/A (140)
  % Control at Days After First Treatment (DAT): 0%
[2]; 204 DAT, application time C (tillering, day 35), rate 0.125 lb/A (140)
  % Control at Days After First Treatment (DAT): 0%
[2]; 204 DAT, application time F (flowering to soft dough, day 155), rate 0.250 lb/A (280)
  % Control at Days After First Treatment (DAT): 95%
[2]; 204 DAT, application times A + B (seedling, days 1 and 15), rate A = 0.125 (140) + B = 0.125 (140) lb/A
  % Control at Days After First Treatment (DAT): 0%
[2]; 204 DAT, application times C + D (tillering, days 35 and 51), rate C = 0.125 (140) + D = 0.125 (140) lb/A
  % Control at Days After First Treatment (DAT): 0%

## CP(=O)(O)CCC(N)C(=O)O (centres unmarked) [Glufosinate-Ammonium, 2-amino-4-(hydoxymethylphosphinyl)butanoic acid]
[1]; application time E, control (none) 30
  Seeds on Ground: 34 g/5 sq ft
[1]; application time E, control (none) 37
  Seeds on Plant: 32 g/5 sq ft
[1]; application time E
  Biomass Dry Weight: 184 g/5 sq ft
[1]; application time E, control (none) 669
  Seeds on Ground: 816 seeds/0.3 g
[1]; application time E, control (none) 864
  Seeds on Plant: 1000 seeds/0.3 g
[2]; 17 DAT, application time A (seedling, day 1), rate 0.375 lb/A (420)
  % Control at Days After First Treatment (DAT): 80%
[2]; 43 DAT, application time A (seedling, day 1), rate 0.375 lb/A (420)
  % Control at Days After First Treatment (DAT): 80%
[2]; 43 DAT, application time C (tillering, day 35), rate 0.375 lb/A (420)
  % Control at Days After First Treatment (DAT): 10%
[2]; 77 DAT, application time A (seedling, day 1), rate 0.375 lb/A (420)
  % Control at Days After First Treatment (DAT): 74%
[2]; 77 DAT, application time C (tillering, day 35), rate 0.375 lb/A (420)
  % Control at Days After First Treatment (DAT): 96%
[2]; 151 DAT, application time A (seedling, day 1), rate 0.375 lb/A (420)
  % Control at Days After First Treatment (DAT): 33%
[2]; 151 DAT, application time C (tillering, day 35), rate 0.375 lb/A (420)
  % Control at Days After First Treatment (DAT): 74%
[2]; 151 DAT, application time E (flowering, day 136), rate 0.375 lb/A (420)
  % Control at Days After First Treatment (DAT): 93%
[2]; 172 DAT, application time A (seedling, day 1), rate 0.375 lb/A (420)
  % Control at Days After First Treatment (DAT): 3%
[2]; 172 DAT, application time C (tillering, day 35), rate 0.375 lb/A (420)
  % Control at Days After First Treatment (DAT): 45%
[2]; 172 DAT, application time E (flowering, day 136), rate 0.375 lb/A (420)
  % Control at Days After First Treatment (DAT): 65%
[2]; 204 DAT, application time A (seedling, day 1), rate 0.375 lb/A (420)
  % Control at Days After First Treatment (DAT): 0%
[2]; 204 DAT, application time C (tillering, day 35), rate 0.375 lb/A (420)
  % Control at Days After First Treatment (DAT): 18%
[2]; 204 DAT, application time E (flowering, day 136), rate 0.375 lb/A (420)
  % Control at Days After First Treatment (DAT): 8%
